# Patent publication US20050014689A1, “Remedies for life style-related diseases or cibophobia and method of screening the same” (priority 2001, published 2005)
# Tested on: clone 901 mRNA
# Assay: Effect of intracerebroventricular antisense DNA administration on food consumption of normal and obese mice
# Type: in vivo
# Conditions: 30 μg/mouse into lateral ventricle
# Excerpt: reagent: clone 901 antisense DNA was a mixture of two kinds of 25mer antisense DNAs relative to the vicinity of the gene initiation codon and synthesis, thiolation and HPLC purification were committed to Nihon Bio Service Co., Ltd.
# Test animal: male C57BL/6N (hereinafter normal mouse) and C57BL db/db (hereinafter obese mouse) (SPF grade) were purchased from Charles River, Japan, Inc. and CLEA JAPAN, INC., respectively, and after preliminary breeding, normal mice were used for the test at the age of 9 weeks and the obese mice were used for the test at the age of 11 weeks.
# Breeding environment: The mice were bred in a room controlled to a temperature of not lower than 20° C. and not higher than 26° C., relative humidity of not less than 30% and not more than 70%, lighting cycle of 8:00-20:00 lighting and 20:00-8:00 lights-out. During breeding, the mice were allowed a free access to a solid feed (CE-2, CLEA JAPAN) and sterile distilled water.
# As an antisense DNA administration liquid, an artificial cerebrospinal fluid (0.166 g/L CaCl2, 7.014 g/L NaCl, 0.298 g/L KCl, 0.203 g/L MgCl2.6H2O, 2.10 g/L NaHCO3) containing 7.5 μg/μl of antisense DNA was prepared. In addition, an artificial cerebrospinal fluid free of antisense DNA was used as a solvent control liquid.
# The normal mice and obese mice were divided into two groups each, and after fasting overnight, an antisense DNA was administered at 4 μl/mouse (30 μg/mouse in the amount of antisense DNA) to one group and a solvent control liquid (4 μl/mouse) was administered into the lateral ventricle of the other group, simultaneously with the lighting at 8:00 a.m.
# Feeding of mice was resumed immediately after administration, and food consumption was calculated at 12 hours after administration. […] The food consumption from 12 hr to 24 hr after administration was calculated. […] In the normal mice, no effect of antisense DNA of clone 901 was found.
substance,measurement,setting,value
"antisense DNA of clone 901: mixture of two thiolated 25mer antisense DNAs (SEQ ID No 3 and No 4) to the vicinity of the clone 901 initiation codon (antisense 1 GCTTCGCAGCGCTCGCTGGGCGGCG; antisense 2 AGTGGGCCACAGCTCCACATGGCAG; DNA, all phosphorothioate, methylation of C not given here)",effect on food consumption,"normal mice (C57BL/6N), 12 hr to 24 hr after administration",no effect
same,effect on food consumption,"normal mice (C57BL/6N), immediately after administration to 12 hours",food consumption-decreasing effect
same,effect on food consumption,"obese mice (C57BL db/db), 12 hr to 24 hr after administration",suppressed to the same level with the normal mice
same,effect on food consumption,"obese mice (C57BL db/db), immediately after administration to 12 hours",food consumption-decreasing effect
